# Results: US9598362B2, “Benzidine derivative, method for preparing same, and pharmaceutical composition containing benzidine derivative for treating liver disease caused by hepatitis C virus” (priority 2013, dated 2017)
# Legend:
# [1] = Evaluation of plasma stability; assay type: in vitro ADME, mouse; conditions: plasma:phosphate buffer pH 7.4 1:1, 37° C., LC-MS/MS, relative to time 0
# Description: Particularly, the compound of Example 16 was dissolved in dimethylsulfoxide at the concentration of 5 μM, resulting in the preparation of the sample solution. The plasma solution (495 μl) was prepared by mixing phosphate buffer (pH 7.4) and plasma at the ratio of 1:1, which was loaded in each well of a 96-well plate. The sample solution prepared above was added to each well (5 μl) of the plate. Then, the plate was covered with a lid, followed by shaking-culture at 100 rpm at 37° C. for 0.5, 1, and 4 hours in the orbital shaker. The reaction was terminated by adding 0-5° C. acetonitrile. At this time, in the case when the process time was 0 after the sample treatment, the reaction was terminated with acetonitrile at the same time as the sample solution was loaded in the plate containing the plasma solution. Upon completion of the reaction, the plate was kept frozen. Then, the plate was centrifuged at 3000 rpm for 10 minutes. Upon completion of the centrifugation, the supernatant (100 μl) was loaded in each well of a 96-well plate, followed by LC-MS/MS. The result obtained by measuring the plasma survival rate at the process time 0 was considered as the standard, based on which each time-dependent plasma survival rate was calculated by considering the concentration over the time of each sample. The results are presented in Tale 6.
# [2] = target: hERG (Homo sapiens, UniProt Q12809); experiment: hERG ligand binding, fluorescence polarization with red fluorescent hERG channel ligand
# Sequence of hERG (Q12809 whole entry): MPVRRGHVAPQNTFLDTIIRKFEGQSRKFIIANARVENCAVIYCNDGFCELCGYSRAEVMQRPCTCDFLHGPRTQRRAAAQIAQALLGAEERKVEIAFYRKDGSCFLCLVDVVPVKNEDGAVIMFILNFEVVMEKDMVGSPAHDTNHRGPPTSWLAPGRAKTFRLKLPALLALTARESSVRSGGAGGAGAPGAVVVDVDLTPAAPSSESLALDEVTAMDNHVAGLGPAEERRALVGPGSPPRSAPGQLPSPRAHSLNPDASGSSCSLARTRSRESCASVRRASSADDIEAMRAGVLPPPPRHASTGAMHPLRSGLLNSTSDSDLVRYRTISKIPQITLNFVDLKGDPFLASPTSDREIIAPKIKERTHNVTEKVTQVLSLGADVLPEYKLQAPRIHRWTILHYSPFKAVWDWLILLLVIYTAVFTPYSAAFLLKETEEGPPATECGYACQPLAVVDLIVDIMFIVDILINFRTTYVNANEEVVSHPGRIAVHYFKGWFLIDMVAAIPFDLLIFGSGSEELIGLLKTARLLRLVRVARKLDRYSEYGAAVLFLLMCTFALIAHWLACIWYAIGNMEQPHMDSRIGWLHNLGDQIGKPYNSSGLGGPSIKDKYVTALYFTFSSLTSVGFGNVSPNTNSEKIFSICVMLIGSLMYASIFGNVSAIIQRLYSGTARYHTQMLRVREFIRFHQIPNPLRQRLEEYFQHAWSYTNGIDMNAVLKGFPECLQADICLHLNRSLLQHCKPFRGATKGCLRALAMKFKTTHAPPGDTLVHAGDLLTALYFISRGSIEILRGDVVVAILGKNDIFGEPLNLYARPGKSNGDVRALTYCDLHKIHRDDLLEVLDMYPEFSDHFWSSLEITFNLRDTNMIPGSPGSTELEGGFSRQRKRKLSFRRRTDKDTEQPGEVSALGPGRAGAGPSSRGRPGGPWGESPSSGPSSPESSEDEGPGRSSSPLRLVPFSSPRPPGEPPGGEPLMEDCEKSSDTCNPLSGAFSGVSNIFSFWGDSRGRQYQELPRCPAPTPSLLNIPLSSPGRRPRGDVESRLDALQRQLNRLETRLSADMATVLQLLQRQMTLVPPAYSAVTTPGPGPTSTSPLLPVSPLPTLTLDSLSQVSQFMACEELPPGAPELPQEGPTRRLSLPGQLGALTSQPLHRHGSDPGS
structure (smiles),measurement,setting,value
"COC(=O)N[C@@H](C(=O)N1CCC[C@H]1C(=O)Nc1ccc(-c2ccc(NC(=O)[C@@H]3CCCN3C(=O)[C@H](NC(=O)OC)c3ccccc3)cc2)cc1)c1ccccc1 [Example 16, dimethyl(1S,1′S)-2,2′-((2S,2′S)-2,2′-(biphenyl-4,4′-diylbis(azandiyl))bis(oxomethylene)bis(pyrrolidine-2,1-diyl))bis(2-oxo-1-phenylethane-2,1-diyl)dicarbamate]",Survival rate after 0.5 h,[1],>99%
same,Survival rate after 1 h,[1],>99%
same,IC50,[2],9.8 µM
